Data on 23 molecules can be found in patent US11945781B2, “Compounds for the treatment of acute and chronic kidney disease” (Southern Research Institute, priority 2020, dated 2024).

This experiment relates to heme oxygenase-1 (HO-1). Description: HO-1 promoter luciferase reporter screen (pHOGL3/4.5+220 stable HEK293 cells). It is filed as cell-based, human. As to conditions: Table 1; for Emax: HEK293, Emax as % of 5 μM hemin; for EC50: evaluation of thioquinolinones, HEK293 HO-1 reporter. On the procedure:
The generation of the pHOGL3/4.5+220 construct is described in Deshane, et al. (2010) “SpI regulates chromatin looping between an intronic enhancer and distal promoter of the human heme oxygenase-1 gene in renal cells” J Biol Chem 285(22): 16476-86. See also FIG. 1.
Briefly, BamHI sites were added to the 4.5-kb PCR product generated by long-range PCR from a bacterial artificial chromosome clone containing portions of chromosome 22 (accession no. Z82244), including the HO-1 gene. This fragment was cloned into the Bg/II restriction site of the multiple cloning region to make the parental clone (pHOGL3/4.5). The 220-bp intronic enhancer was amplified with SalI sites on either end and cloned into the SalI site of the vector to generate pHOGL3/4.5+220.
In order to generate cells that stably express luciferase expression vectors that lack a mammalian antibiotic selection cassette, HEK293 cells were co-transfected with either pHOGL3/4.5+220 (Deshane et al, 2010) or the Triple Mutant construct (Liby, Hock et al, 2005; Hock et al, 2007) and pcDNA3.1 Zeocin using Lipofectamine 2000. Cells were cultured in Zeocin (400 ug/ml; Invitrogen) for selection. Individual clones were sorted by flow cytometry and plated into a 96-well plate at a density of one cell per well. Clones were maintained and expanded in complete media (DMEM/10% FBS/1× antibiotic-antimycotic) supplemented with 100 ug/ml Zeocin, and incubated at 37° C. in 5% carbon dioxide. Incorporation of the Luciferase expression vectors was validated by assaying for luciferase. […]

Like-named read-outs stand apart in the source and are kept apart here.

For orientation: Emax means the size of the effect at its maximum, as opposed to the concentration needed. What is called EC50 is the concentration giving half of the maximal effect.

`Oc1c(F)cc(CSc2cccc3cccnc23)cc1Cl` [Compound 5] registered an Emax (Homo sapiens) of 113%. Further, the EC50 (Homo sapiens, read-out: EC50) was 0.42 µM.

As to `Oc1c(F)cc(CSc2cccc3ccccc23)cc1F` [Compound 18], the EC50 entry is “Inactive”.

On to `Oc1ccc(CCSc2cccc3cccnc23)cc1` [Compound 13], for which the Emax (Homo sapiens) stood at 122%. In addition, the EC50 (Homo sapiens, read-out: EC50) was 19 µM.

Turning to `Oc1ccc(CSc2cccc3cccnc23)cc1Cl` [Compound 4], the Emax (Homo sapiens) was 106%. For the same molecule, the EC50 (Homo sapiens, read-out: EC50) was 0.34 µM.

`Oc1c(F)cc(F)cc1CSc1cccc2cccnc12` [Compound 7]: the Emax (Homo sapiens) came to 55.2%. Also, the EC50 (Homo sapiens, read-out: EC50) was determined as 5.25 µM.

Turning to `O=S(=O)(Nc1cc(F)c(O)c(F)c1)c1cccc2cccnc12` [Compound 21], the EC50 entry is “Inactive”.

With `Oc1ccc(CSc2cccc3cccnc23)cc1F` [Compound 3], the Emax (Homo sapiens) was determined as 83.7%. Also, the EC50 (Homo sapiens, read-out: EC50) is 0.2 µM.

Take `COc1c(F)cc(CCSc2cccc3cccnc23)cc1F` [Compound 20]: for the setting “Homo sapiens”, the Emax came out at 69.9%. Also, the EC50 (Homo sapiens, read-out: EC50) is 20 µM.

On to `O=S(=O)(Cc1cc(F)c(O)c(F)c1)c1cccc2cccnc12` [Compound 10], for which the EC50 entry is on record as “Inactive”.

On to `O=C(Nc1cccc2cccnc12)c1cc(F)c(O)c(F)c1` [Compound 22], for which the EC50 result is recorded as “Inactive”.

Regarding `Oc1c(F)cc(CSc2ccnc3ccccc23)cc1F` [Compound 15], the EC50 entry was “Inactive”.

Consider `O=C(Nc1cc(F)c(O)c(F)c1)c1cccc2cccnc12` [Compound 23], for which the EC50 entry is listed as “Inactive”.

Turning to `Oc1c(F)cc(CCSc2cccc3cccnc23)cc1F` [Compound 12], the concentration for a half-maximal effect (EC50) entry is “Inactive”.

In turn, `[O-][S+](Cc1cc(F)c(O)c(F)c1)c1cccc2cccnc12` (stereo not drawn) [Compound 9] gave an Emax (Homo sapiens) of 106%. Moreover, under “Homo sapiens, read-out: EC50”, the EC50 came to 0.34 µM.

`Oc1ccc(CSc2cccc3cccnc23)cc1` [Compound 2]: the Emax (Homo sapiens) turned out to be 127%. Also, the EC50 (Homo sapiens, read-out: EC50) was 0.34 µM.

Regarding `COc1c(F)cc(CSc2cccc3cccnc23)cc1F` [Compound 19, 8-((3,5-difluoro-4-methoxybenzyl)thio)quinolone], the EC50 result is “Inactive”.

As for `Oc1c(F)cc(CSc2cccc3cccnc23)cc1F` [Compound 1, 2,6-difluoro-4-((quinolin-8-ylthio)methyl)phenol], the Emax (Homo sapiens) came out at 154%. Where the note is “Homo sapiens, read-out: EC50”, the EC50 turned out to be 0.43 µM.

Take `Fc1cc(F)cc(CSc2cccc3cccnc23)c1` [Compound 8]: the EC50 result was “Inactive”.

Turning to `Oc1c(F)cc(CSc2nccc3ccccc23)cc1F` [Compound 16], the EC50 result is given as “Inactive”.

In the case of `Oc1c(F)cc(CSc2ccncc2)cc1F` [Compound 17], the EC50 entry is on record as “Inactive”.

As for `Oc1ccc(COc2cccc3cccnc23)cc1` [Compound 11], the EC50 result was “Inactive”.

For the molecule `Oc1c(F)c(F)c(CSc2cccc3cccnc23)c(F)c1F` [Compound 6], under “Homo sapiens”, the Emax worked out at 113%. Further, the EC50 (Homo sapiens, read-out: EC50) came out at 1.05 µM.

As to `Oc1ccc(CSc2cccc3cccnc23)cc1` [Compound 14], the EC50 result is recorded as “Inactive”.
